Assay [1] concerns the target T1, PRMT5/MEP50 (Homo sapiens, UniProt O14744).
T1 construct: Expressed full-length human Flag-PRMT5/6His-MeP50 protein complex was purified; made in house; host or cells: Spodoptera frugiperda (SF9) insect cells, baculovirus (pDEST8)
Nature of the assay: PRMT5 Biochemical Assay (PRMT5/MEP50 enzyme assay on peptide substrate, 3H-SAM Flashplate). To be noted: Table D-2; read-out: Biochemical IC50.

The test system of assay [2] is Z-138 cells. Nature of the assay: Z-138 Proliferation Assay (Cell Titer Glo, 5 days). It is filed as cell-based. To be noted: Homo sapiens, Table D-2. In a few lines:
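Exponentially growing Z-138 cells (10,000 cells/ml) in RPMI 1640 with 10% FBS are exposed to nine-point 3-fold dilutions (final top concentration 20 μM, 0.2% DMSO) for 5 days at 37° C. Viability is measured as ATP by CellTiter-Glo luminescence. The 50% inhibitory concentration comes from a 4-parameter fit.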
For orientation: Cellular ATP, detected with luciferase, serves as a proxy for viable cell number.

T1 sequence (O14744 with tags, fused parts or gaps): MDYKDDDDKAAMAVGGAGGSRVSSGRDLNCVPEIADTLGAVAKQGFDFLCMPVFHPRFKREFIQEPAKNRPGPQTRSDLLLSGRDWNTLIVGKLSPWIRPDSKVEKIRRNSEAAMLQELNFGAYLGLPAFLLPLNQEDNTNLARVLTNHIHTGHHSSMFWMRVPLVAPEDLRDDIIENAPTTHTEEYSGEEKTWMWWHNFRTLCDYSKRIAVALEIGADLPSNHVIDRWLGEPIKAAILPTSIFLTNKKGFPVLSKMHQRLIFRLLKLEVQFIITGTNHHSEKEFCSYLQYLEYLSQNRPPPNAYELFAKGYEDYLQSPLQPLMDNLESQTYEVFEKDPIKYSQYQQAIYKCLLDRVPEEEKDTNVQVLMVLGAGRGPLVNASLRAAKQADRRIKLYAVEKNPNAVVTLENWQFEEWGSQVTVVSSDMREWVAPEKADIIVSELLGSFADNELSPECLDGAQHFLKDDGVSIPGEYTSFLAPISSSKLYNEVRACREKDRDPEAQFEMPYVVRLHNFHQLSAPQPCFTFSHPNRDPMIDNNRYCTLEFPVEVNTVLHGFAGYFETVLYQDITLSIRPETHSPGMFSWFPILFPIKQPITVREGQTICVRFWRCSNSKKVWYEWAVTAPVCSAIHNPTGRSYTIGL
T1 sequence (Q9BQA1 with tags, fused parts or gaps partner limits assumed): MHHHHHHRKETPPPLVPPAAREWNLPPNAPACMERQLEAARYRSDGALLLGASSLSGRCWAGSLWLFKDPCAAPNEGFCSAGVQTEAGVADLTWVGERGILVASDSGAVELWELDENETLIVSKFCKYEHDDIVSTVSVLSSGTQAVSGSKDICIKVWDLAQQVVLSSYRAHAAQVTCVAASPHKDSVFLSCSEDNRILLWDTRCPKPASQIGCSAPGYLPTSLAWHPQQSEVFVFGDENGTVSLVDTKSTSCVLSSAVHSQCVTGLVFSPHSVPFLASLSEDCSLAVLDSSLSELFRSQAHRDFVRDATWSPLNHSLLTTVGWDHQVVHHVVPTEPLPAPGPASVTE

What is called IC50 is the concentration that inhibits the measured activity by half. As usually defined, the EC50 is the concentration at which the effect is half-maximal. Lower therefore signals higher potency in that assay. Take `O=C(c1ccc(Cn2nccc2-c2ccc(OCC(O)CN3CCc4ccccc4C3)cc2)cc1)N1CCCC1` (stereo not shown) [Compound D31]: the IC50 in assay [1] is 0.101 to 1 µM. The concentration giving a half-maximal response (EC50) in assay [2] lay within 10 to 40 µM.
In the same order, the values of `COC(COc1cccc(CNC2CCCC2)c1)CN1CCc2ccccc2C1` (stereo not shown) [Compound D32] are 1 to 10 µM and > 40 µM.
In the same order, the values of `OC(CNc1cccc(CNC2CCCC2)c1)CN1CCc2ccccc2C1` (stereo not shown) [Compound D39] are 0.101 to 1 µM and > 20 µM.
On to `OC(COc1cccc(-c2ccccc2)c1)CN1CCc2ccccc2C1` (stereo not shown) [Compound D43], for which, in assay [1], the IC50 was 0.101 to 1 µM. Moreover, the EC50 in assay [2] is > 20 µM.
In the same order, the values of `Cn1cnc2ccc(-c3cccc(OCC(O)CN4CCc5ccccc5C4)c3)cc21` (stereo not shown) [Compound D45] are < 0.1 µM and 1 to 10 µM.
Take `OC(COc1ccc(C2CCCNC2)cc1)CN1CCc2ccccc2C1` (stereo not shown) [Compound D47]: in assay [1], the IC50 is < 0.1 µM. The same molecule displayed an EC50 in assay [2] of 1 to 10 µM.
As to `CC(Oc1cccc(CNC2CCCC2)c1)C(O)CN1CCc2ccccc2C1` (stereo not shown) [Compound D49], the IC50 in assay [1] was 0.101 to 1 µM. This molecule also had an EC50 in assay [2] of 1 to 10 µM.
In the same order, the values of `CN(CC(O)CN1CCc2ccccc2C1)c1cccc(CNC2CCCC2)c1` (stereo not shown) [Compound D53] are 0.101 to 1 µM and 10 to 40 µM.
Consider `OC(COc1cccc(-c2ccc3cn[nH]c3c2)c1)CN1CCc2ccccc2C1` (stereo not shown) [Compound D58], for which the IC50 in assay [1] was 0.101 to 1 µM. In assay [2], this molecule gave an EC50 of 10 to 40 µM.
In the case of `OC(COc1cccc(-c2ccc3c(c2)OCO3)c1)CN1CCc2ccccc2C1` (stereo not shown) [Compound D59], the IC50 in assay [1] was 0.101 to 1 µM. Besides, the EC50 in assay [2] is 10 to 40 µM.
In the same order, the values of `Cn1cnc2cc(-c3cccc(OCC(O)CN4CCc5ccccc5C4)c3)ccc21` (stereo not shown) [Compound D60] are 0.101 to 1 µM and 10 to 40 µM.
In the same order, the values of `OC(COc1cccc(-c2cc(C(F)(F)F)ccc2Cl)c1)CN1CCc2ccccc2C1` (stereo not shown) [Compound D62] are 0.101 to 1 µM and 10 to 40 µM.
In the same order, the values of `CS(=O)(=O)c1ccc(-c2cccc(OCC(O)CN3CCc4ccccc4C3)c2)cc1` (stereo not shown) [Compound D63] are 0.101 to 1 µM and 10 to 40 µM.
With `OC(COc1cccc(-c2cccc3cccnc23)c1)CN1CCc2ccccc2C1` (stereo not shown) [Compound D65], in assay [1], the IC50 is < 0.1 µM. In assay [2], this molecule displayed an EC50 of 10 to 40 µM.
In the same order, the values of `CC(=O)c1cccc(-c2cccc(OCC(O)CN3CCc4ccccc4C3)c2)c1` (stereo not shown) [Compound D67] are 0.101 to 1 µM and 10 to 40 µM.
As for `OC(COc1cccc(-c2cccc(F)c2F)c1)CN1CCc2ccccc2C1` (stereo not shown) [Compound D68], in assay [1], the IC50 lay in the range of 0.101 to 1 µM. This molecule gave an EC50 in assay [2] of 10 to 40 µM.
In the same order, the values of `OCc1cccc(-c2cccc(OCC(O)CN3CCc4ccccc4C3)c2)c1` (stereo not shown) [Compound D72] are 0.101 to 1 µM and 10 to 40 µM.
In the same order, the values of `COc1cccc(-c2cccc(OCC(O)CN3CCc4ccccc4C3)c2)c1` (stereo not shown) [Compound D74] are 0.101 to 1 µM and 10 to 40 µM.
In the same order, the values of `COc1ccc(-c2cccc(OCC(O)CN3CCc4ccccc4C3)c2)cc1` (stereo not shown) [Compound D75] are 0.101 to 1 µM and 10 to 40 µM.
For `CC1c2ccccc2CCN1CC(O)COc1cccc(-c2ccc3ncn(C)c3c2)c1` (stereo not shown) [Compound D80], the IC50 in assay [1] fell in the range of 0.101 to 1 µM. In assay [2], this molecule had an EC50 of 1 to 10 µM.
Turning to `CC(C)n1cnc2ccc(-c3cccc(OCC(O)CN4CCc5ccccc5C4)c3)cc21` (stereo not shown) [Compound D81], in assay [1], the IC50 fell in the range of 0.101 to 1 µM. The molecule further gave an EC50 in assay [2] of 10 to 40 µM.
In the same order, the values of `COc1ccc(Cn2cnc3ccc(-c4cccc(OCC(O)CN5CCc6ccccc6C5)c4)cc32)cc1` (stereo not shown) [Compound D82] are 0.101 to 1 µM and 10 to 40 µM.
In the same order, the values of `OC(COc1cccc(-c2ccc3nc[nH]c3c2)c1)CN1CCc2ccccc2C1` (stereo not shown) [Compound D83] are 0.101 to 1 µM and 10 to 40 µM.
In the same order, the values of `OC(COc1cccc(-c2ccc3nn[nH]c3c2)c1)CN1CCc2ccccc2C1` (stereo not shown) [Compound D84] are 0.101 to 1 µM and 1 to 10 µM.
On to `OC(COc1cccc(-c2ccc3c(c2)OCCO3)c1)CN1CCc2ccccc2C1` (stereo not shown) [Compound D85], for which the half-maximal inhibitory concentration (IC50) in assay [1] fell in the range of 0.101 to 1 µM. This molecule also displayed an EC50 in assay [2] of 10 to 40 µM.
In the same order, the values of `OC(COc1cccc(-c2cccc3c2oc2ccccc23)c1)CN1CCc2ccccc2C1` (stereo not shown) [Compound D86] are 0.101 to 1 µM and 10 to 40 µM.
In the same order, the values of `COc1ccc(-c2cccc(OCC(O)CN3CCc4ccccc4C3)c2)c(Cl)c1` (stereo not shown) [Compound D88] are 0.101 to 1 µM and 10 to 40 µM.
In the same order, the values of `OC(COc1cccc(-c2cnc3ccccc3c2)c1)CN1CCc2ccccc2C1` (stereo not shown) [Compound D89] are 0.101 to 1 µM and 10 to 40 µM.
With `COc1ccc(-c2cccc(OCC(O)CN3CCc4ccccc4C3)c2)c(C)c1` (stereo not shown) [Compound D90], in assay [1], the IC50 fell in the range of 0.101 to 1 µM. Further, the EC50 in assay [2] fell in the range of 10 to 40 µM.
In the same order, the values of `OC(COc1cccc(-c2ccccc2Cl)c1)CN1CCc2ccccc2C1` (stereo not shown) [Compound D92] are 0.101 to 1 µM and 10 to 40 µM.
In the same order, the values of `OC(COc1cccc(-c2ccc3ncn(C4CNC4)c3c2)c1)CN1CCc2ccccc2C1` (stereo not shown) [Compound D208] are 0.101 to 1 µM and 1 to 10 µM.
In the same order, the values of `OC(COc1cccc(-c2ccc3ncn(C4CCNC4)c3c2)c1)CN1CCc2ccccc2C1` (stereo not shown) [Compound D209] are < 0.1 µM and 1 to 10 µM.
As to `Cn1cc2ccc(-c3cccc(OCC(O)CN4CCc5ccccc5C4)c3)nc2n1` (stereo not shown) [Compound D210], the half-inhibitory concentration (IC50) in assay [1] was < 0.1 µM. The molecule also displayed an EC50 in assay [2] of 10 to 40 µM.
As for `Cn1ncc2c1CN(c1cccc(OCC(O)CN3CCc4ccccc4C3)c1)CC2` (stereo not shown) [Compound D216], the IC50 in assay [1] fell in the range of 0.101 to 1 µM. Further, the EC50 in assay [2] is > 20 µM.
In the same order, the values of `Cn1cnc2ccc(-c3cc(NCC(O)CN4CCc5ccccc5C4)ccn3)cc21` (stereo not shown) [Compound D217] are 0.101 to 1 µM and 10 to 40 µM.
In the same order, the values of `CN1CC(n2cnc3ccc(-c4cccc(OCC(O)CN5CCc6ccccc6C5)c4)cc32)C1` (stereo not shown) [Compound D218] are < 0.1 µM and 1 to 10 µM.
As to `CN1CCC(n2cnc3ccc(-c4cccc(OCC(O)CN5CCc6ccccc6C5)c4)cc32)C1` (stereo not shown) [Compound D219], the IC50 in assay [1] is < 0.1 µM. The EC50 in assay [2] was 1 to 10 µM.
In the same order, the values of `OC(COc1cccc(-c2ccc3ncn(C4CCNCC4)c3c2)c1)CN1CCc2ccccc2C1` (stereo not shown) [Compound D220] are < 0.1 µM and 1 to 10 µM.
In the same order, the values of `CN1CCC(n2cnc3ccc(-c4cccc(OCC(O)CN5CCc6ccccc6C5)c4)cc32)CC1` (stereo not shown) [Compound D221] are < 0.1 µM and 1 to 10 µM.
In the same order, the values of `O=C(Cn1ccc2cnc(-c3cccc(OCC(O)CN4CCc5ccccc5C4)c3)nc21)N1CCOCC1` (stereo not shown) [Compound D222] are 0.101 to 1 µM and 10 to 40 µM.
On to `OC(COc1cccc(-c2cccc3[nH]cnc23)c1)CN1CCc2ccccc2C1` (stereo not shown) [Compound D223], for which, in assay [1], the IC50 was < 0.1 µM. In assay [2], this molecule returned an EC50 of 10 to 40 µM.
In the same order, the values of `Cn1cc2ccc(-c3cc(NCC(O)CN4CCc5ccccc5C4)ncn3)cc2n1` (stereo not shown) [Compound D224] are 0.101 to 1 µM and > 20 µM.
In the same order, the values of `Cn1ncc2ccc(-c3ccnc(NCC(O)CN4CCc5ccccc5C4)c3)cc21` (stereo not shown) [Compound D226] are < 0.1 µM and 1 to 10 µM.
In the same order, the values of `O=C(Cn1ccc2cnc(-c3ccnc(NCC(O)CN4CCc5ccccc5C4)c3)nc21)N1CCCC1` (stereo not shown) [Compound D233] are < 0.1 µM and 1 to 10 µM.
As for `O=C(Cn1ccc2cnc(-c3ccnc(NCC(O)CN4CCc5ccccc5C4)c3)nc21)N1CCOCC1` (stereo not shown) [Compound D234], the IC50 in assay [1] was < 0.1 µM. Further, the EC50 in assay [2] fell in the range of 0.101 to 1 µM.
In the same order, the values of `OC(CNc1cccc(-c2cccc3[nH]cnc23)c1)CN1CCc2ccccc2C1` (stereo not shown) [Compound D235] are 0.101 to 1 µM and 10 to 40 µM.
Turning to `Cn1cc2ccc(-c3ccnc(NCC(O)CN4CCc5ccccc5C4)c3)cc2n1` (stereo not shown) [Compound D236], the IC50 in assay [1] is < 0.1 µM. The EC50 in assay [2] lay within 1 to 10 µM.
As for `Cn1ccc2ccc(-c3cc(NCC(O)CN4CCc5ccccc5C4)ncn3)cc21` (stereo not shown) [Compound D237], the IC50 in assay [1] lay within 0.101 to 1 µM. In addition, in assay [2], the EC50 was 10 to 40 µM.
In the same order, the values of `Cn1cnc2ccc(-c3ccnc(NCC(O)CN4CCc5ccccc5C4)c3)nc21` (stereo not shown) [Compound D238] are < 0.1 µM and 1 to 10 µM.
In the same order, the values of `Cn1ccc2cnc(-c3ccnc(NCC(O)CN4CCc5ccccc5C4)c3)nc21` (stereo not shown) [Compound D239] are < 0.1 µM and 1 to 10 µM.
In the same order, the values of `OC(CNc1cc(-c2ccc3ncn(C4CCNC4)c3c2)ccn1)CN1CCc2ccccc2C1` (stereo not shown) [Compound D240] are < 0.1 µM and 1 to 10 µM.
Regarding `OC(CNc1cc(-c2ccc3ncn(C4CCNCC4)c3c2)ccn1)CN1CCc2ccccc2C1` (stereo not shown) [Compound D241], in assay [1], the IC50 is < 0.1 µM. For the same molecule, the EC50 in assay [2] is 1 to 10 µM.
In the same order, the values of `CC(=O)N1CCC(n2cnc3ccc(-c4ccnc(NCC(O)CN5CCc6ccccc6C5)c4)cc32)CC1` (stereo not shown) [Compound D242] are 0.101 to 1 µM and 1 to 10 µM.
With `CC(=O)N1CCC(n2ccc3cnc(-c4cccc(OCC(O)CN5CCc6ccccc6C5)c4)nc32)CC1` (stereo not shown) [Compound D243], the IC50 in assay [1] lay within 0.101 to 1 µM. For the same molecule, the EC50 in assay [2] lay within 1 to 10 µM.
`CN1CCN(C(=O)Cn2ccc3cnc(-c4cccc(OCC(O)CN5CCc6ccccc6C5)c4)nc32)CC1` (stereo not shown) [Compound D244]: the IC50 in assay [1] was in the range of 0.101 to 1 µM. In assay [2], this molecule showed a half-maximal effective concentration (EC50) of 10 to 40 µM.
Turning to `CNC(=O)Cn1ccc2cnc(-c3ccnc(NCC(O)CN4CCc5ccccc5C4)c3)nc21` (stereo not shown) [Compound D245], the IC50 in assay [1] was < 0.1 µM. The molecule also returned an EC50 in assay [2] of 1 to 10 µM.
